Laboratory results reported in patent US12162858B2, “Quinoline derivatives as inhibitors of AXL/MER RTK and CSF1R” (QURIENT CO., LTD., priority 2018, dated 2024).

The compounds below were run against T1, Axl (Homo sapiens, UniProt P30530) (assay: Cellular Axl inhibition ELISA (p-Axl, Gas6-induced) using H1299 cells). Details: read-out: Cellular Axl activity by H1299 Elisa (IC50).
T1 sequence (P30530 26-894): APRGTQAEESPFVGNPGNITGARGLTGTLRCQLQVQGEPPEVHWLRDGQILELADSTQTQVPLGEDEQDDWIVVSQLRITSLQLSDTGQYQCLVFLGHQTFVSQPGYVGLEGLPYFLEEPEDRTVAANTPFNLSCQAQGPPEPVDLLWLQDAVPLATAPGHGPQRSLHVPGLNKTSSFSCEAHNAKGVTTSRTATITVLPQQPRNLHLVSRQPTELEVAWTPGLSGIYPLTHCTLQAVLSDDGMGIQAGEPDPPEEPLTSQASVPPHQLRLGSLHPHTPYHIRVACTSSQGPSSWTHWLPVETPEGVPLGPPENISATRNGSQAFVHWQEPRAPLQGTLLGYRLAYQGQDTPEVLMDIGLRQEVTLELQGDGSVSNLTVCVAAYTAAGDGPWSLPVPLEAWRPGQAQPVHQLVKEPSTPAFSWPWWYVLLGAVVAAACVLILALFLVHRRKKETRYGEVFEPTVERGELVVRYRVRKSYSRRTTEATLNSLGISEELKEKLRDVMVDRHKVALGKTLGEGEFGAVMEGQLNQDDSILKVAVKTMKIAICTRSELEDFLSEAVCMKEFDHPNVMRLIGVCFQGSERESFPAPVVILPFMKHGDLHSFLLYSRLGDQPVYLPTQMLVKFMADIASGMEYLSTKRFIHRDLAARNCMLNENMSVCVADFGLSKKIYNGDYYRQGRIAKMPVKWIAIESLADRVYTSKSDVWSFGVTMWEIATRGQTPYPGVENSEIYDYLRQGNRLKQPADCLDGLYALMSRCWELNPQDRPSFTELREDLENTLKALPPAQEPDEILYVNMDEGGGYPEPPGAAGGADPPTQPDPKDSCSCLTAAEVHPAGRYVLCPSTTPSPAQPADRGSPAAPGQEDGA
Format: cell-based
Parameters: especially H1299 cell endogenously expresses Axl; endogenous in cells; host or cells: H1299
Outline: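 H1299 cells, seeded overnight, exposed 24 h at 37 °C to 10-point 3-fold compound dilutions, then stimulated with 200 ng/ml human Gas6 (final) for 1 h. Lysates assayed for p-Axl by sandwich ELISA with HRP/TMB, absorbance 450 nm; IC50 by sigmoidal dose-response fit.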
`COc1cc2nccc(Oc3ccc(NC(=O)c4nn(CCO)cc4OCC(F)(F)F)cc3C)c2cc1OC` [Compound 56] showed an IC50 of no less than 1000 nM. `COc1cc2nccc(Oc3ccc(NC(=O)c4nn(C5COC5)cc4OCC(F)(F)F)nc3)c2cc1OC` [Compound 66] was tested, and the IC50 was less than 500 nM. `COCCn1cc(OCC(F)(F)F)c(C(=O)Nc2ccc(Oc3ccnc4cc(OC)c(OC)cc34)cc2)n1` [Compound 61] gave an IC50 of less than 500 nM. `CCCn1cc(OC(C)C)c(C(=O)Nc2ccc(Oc3ccnc4cc(OC)c(OC(F)(F)F)cc34)c(F)c2)n1` [Compound 35] was tested, and the IC50 was no less than 1000 nM. In the case of `COc1cc2nccc(Oc3ccc(NC(=O)c4nn(CCOC5CCC5)cc4OCC(F)(F)F)nc3)c2cc1OC` [Compound 65], the IC50 is reported as less than 500 nM. For `COc1cc2nccc(Oc3ccc(NC(=O)c4nc(CCC(F)(F)F)oc4CCC4CCC4)nc3)c2cc1OC` [Compound 176], the IC50 was less than 500 nM. Work on `COc1cc2nccc(Oc3ccc(NC(=O)c4nn(CCO)cc4OCC(F)(F)F)nc3)c2cc1OC` [Compound 67] yielded an IC50 of less than 500 nM. Compound `COc1cc2nccc(Oc3ccc(NC(=O)c4nn(CC5CCCC5)cc4OCC(F)(F)F)nc3)c2cc1OC` [Compound 71] has an IC50 of less than 500 nM. `COc1cc2nccc(Oc3ccc(NC(=O)c4nn(C5CCOC5)cc4OCC(F)(F)F)nc3)c2cc1OC` (centres unmarked) [Compound 13] was tested, and the IC50 was less than 500 nM. In the case of `COc1cc2nccc(Oc3ccc(NC(=O)c4nn(C5CC5)cc4OCCC(F)(F)F)nn3)c2cc1OC` [Compound 173], the IC50 is reported as less than 500 nM. `COc1cc2nccc(Oc3ccc(NC(=O)c4nn(C5CCC5)cc4OCC(F)(F)F)nc3)c2cc1OC` [Compound 24] was tested, and the IC50 was less than 500 nM. Compound `COc1cc2nccc(Oc3ccc(NC(=O)c4nn(C(C)C)c(C)c4OCC(F)(F)F)nc3)c2cc1OC` [Compound 2] has an IC50 of less than 500 nM. Work on `COc1cc2nccc(Oc3ccc(NC(=O)c4nn(C5CC5)cc4OCCC(F)(F)F)nc3)c2cc1OC` [Compound 170] yielded an IC50 of less than 500 nM. In the case of `CCCCn1cc(OCC(F)(F)F)c(C(=O)Nc2ccc(Oc3ccnc4cc(OC)c(OC)cc34)cn2)n1` [Compound 36], the IC50 is reported as less than 500 nM. With `COc1cc2nccc(Oc3ccc(NC(=O)c4nn(CC(C)C)cc4OCC(F)(F)F)nc3)c2cc1OC` [Compound 21] the IC50 was less than 500 nM. `COc1cc2nccc(Oc3ccc(NC(=O)c4nn(C5CCOC5)cc4OCC(F)(F)F)cc3F)c2cc1OC` (centres unmarked) [Compound 55] was tested, and the IC50 was less than 500 nM. `COc1cc2nccc(Oc3ccc(NC(=O)c4nn(C5CCCC5)cc4OCC(F)(F)F)c(F)c3)c2cc1OC` [Compound 47] gave an IC50 of less than 500 nM. With `COc1cc2nccc(Oc3ccc(NC(=O)c4nn(CCN)cc4OCC(F)(F)F)c(F)c3)c2cc1OC` [Compound 75] the IC50 was less than 500 nM. Work on `COc1cc2nccc(Oc3ccc(NC(=O)c4nn(CC5CC5)cc4OCC(F)(F)F)nc3)c2cc1OC` [Compound 41] yielded an IC50 of less than 500 nM. For `COc1cc2nccc(Oc3ccc(NC(=O)c4nn(CCCN)cc4OCC(F)(F)F)nc3)c2cc1OC` [Compound 68], the IC50 was less than 500 nM. With `COc1cc2nccc(Oc3ccc(NC(=O)c4nn(CC5CCNC5)cc4OCC(F)(F)F)nc3)c2cc1OC` (centres unmarked) [Compound 72] the IC50 was no less than 1000 nM. `COCCOc1cn(C2CC2)nc1C(=O)Nc1ccc(Oc2ccnc3cc(OC)c(OC)cc23)nn1` [Compound 171] showed an IC50 of less than 500 nM. With `CCCn1cc(OCC(F)(F)F)c(C(=O)Nc2ccc(Oc3ccnc4cc(OC)c(OC)cc34)cc2)n1` [Compound 38] the IC50 was less than 500 nM. Work on `COc1cc2nccc(Oc3ccc(NC(=O)c4nn(CC5CCOC5)cc4OCC(F)(F)F)nc3)c2cc1OC` (centres unmarked) [Compound 44] yielded an IC50 of less than 500 nM. Compound `COc1cc2nccc(Oc3ccc(NC(=O)c4nn(CC(C)C)cc4OCC(F)(F)F)cc3F)c2cc1OC` [Compound 53] has an IC50 of less than 500 nM. In the case of `COc1cc2nccc(Oc3ccc(NC(=O)c4nn(CCCO)cc4OCC(F)(F)F)nc3)c2cc1OC` [Compound 18], the IC50 is reported as less than 500 nM. `COc1cc2nccc(Oc3ccc(NC(=O)c4nn(C5CCCC5)cc4OCC(F)(F)F)cc3F)c2cc1OC` [Compound 52] was tested, and the IC50 was less than 500 nM. In the case of `CCCn1cc(OCC(F)(F)F)c(C(=O)Nc2ccc(Oc3ccnc4cc(OC)c(OC)cc34)c(F)c2)n1` [Compound 25], the IC50 is reported as less than 500 nM. `COCCn1cc(OCC(F)(F)F)c(C(=O)Nc2ccc(Oc3ccnc4cc(OC)c(OC)cc34)c(F)c2)n1` [Compound 54] gave an IC50 of less than 500 nM. `COc1cc2nccc(Oc3ccc(NC(=O)c4sc(C5CC5)cc4OCC(F)(F)F)nc3)c2cc1OC` [Compound 179] was tested, and the IC50 was less than 500 nM. `COc1cc2nccc(Oc3ccc(NC(=O)c4nn(CC(C)O)cc4OCC(F)F)nc3)c2cc1OC` (centres unmarked) [Compound 175] gave an IC50 of less than 500 nM. In the case of `CCC(=O)n1cc(OCC(F)(F)F)c(C(=O)Nc2ccc(Oc3ccnc4cc(OC)c(OC)cc34)cn2)n1` [Compound 20], the IC50 is reported as less than 500 nM.
